Measurements as given in patent US20150105252A1, “SUBSTITUTED PYRAZOLES AS HERBICIDES” (E I DU PONT DE NEMOURS AND COMPANY, priority 2013, published 2015).

How the values were obtained:
[1] = tested on: crabgrass, large; assay: Test A preemergence; type: in vivo, Digitaria sanguinalis; details: preemergence; for Crabgrass, Large plant response rating (0 to 100 scale): 125 g ai/ha, visual injury approx. 10 days after treatment; for Crabgrass, Large plant response rating: 500 g ai/ha, visual injury after approx. 10 days, 0 to 100 scale (0 no effect, 100 complete control)
Procedure, shortened: (§1)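 Scoring was visual, on a scale where 100 means complete control and 0 means no effect, comparing treated with untreated plants around 10 days post-application. Compounds in surfactant-containing non-phytotoxic solvent were sprayed onto soil preemergence or onto one- to two-leaf seedlings (2–10 cm) postemergence.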

[2] = tested on: galium; assay: Test C postemergence; type: in vivo, Galium aparine; details: for Plant response rating (scale of 0 to 100 where 0 is no effect and 100 is complete control), Galium: Postemergence, 31 g ai/ha, visually evaluated after 13 to 15 days; for Galium plant response rating / Plant response rating, Galium: postemergence; for Galium plant response rating: 62 g ai/ha, scale 0 to 100
Procedure, shortened: (§2)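 Visual control ratings on a 0–100 scale (100 = complete control) made against untreated controls after 13 to 15 days in greenhouse. Compounds applied in surfactant-containing solvent mixture, either preemergence to loam/sand-sown seeds or postemergence to 1- to 4-leaf plants (2–18 cm) in peat medium.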

[3] = tested on: sedge, umbrella; assay: Test B flood; type: in vivo, Cyperus difformis; details: 250 g ai/ha, visual rating on 0 to 100 scale (0 no effect, 100 complete control), 13 to 15 days
Procedure, shortened: (§3)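 Greenhouse assay lasting 13 to 15 days. Treatment was into water flooding pots 3 cm deep, at the 2-leaf stage, with that level sustained afterwards. Scores compare treated with control plants visually, 100 denoting complete control and 0 no effect; a dash marks no test result.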

[4] = tested on: ragweed; assay: Test C postemergence; type: in vivo, Ambrosia elation; details: postemergence
Procedure, shortened: as §2

[5] = tested on: foxtail, giant; assay: Test A postemergence; type: in vivo, Setaria faberii
Procedure, shortened: as §1

[6] = tested on: corn; assay: Test A preemergence; type: in vivo, Zea mays; details: preemergence; for Corn plant response rating (0 to 100 scale): 125 g ai/ha, visual injury approx. 10 days after treatment; for Corn plant response rating: 500 g ai/ha, visual injury after approx. 10 days, 0 to 100 scale (0 no effect, 100 complete control)
Procedure, shortened: as §1

[7] = tested on: ryegrass, Italian; assay: Test C preemergence; type: in vivo, Lolium multiflorum; details: preemergence; for Plant response rating, Ryegrass, Italian: 125 g ai/ha, scale 0 to 100, 0 = no effect, 100 = complete control
Procedure, shortened: as §2

[8] = tested on: morningglory; assay: Test C postemergence; type: in vivo, Ipomoea coccinea; details: for Plant response rating (scale of 0 to 100 where 0 is no effect and 100 is complete control), Morningglory: Postemergence, 31 g ai/ha, visually evaluated after 13 to 15 days; for Morningglory plant response rating / Plant response rating, Morningglory: postemergence; for Morningglory plant response rating: 62 g ai/ha, scale 0 to 100
Procedure, shortened: as §2

[9] = tested on: pigweed; assay: Test C postemergence; type: in vivo, Amaranthus retroflexus; details: postemergence; for Pigweed plant response rating: 62 g ai/ha, scale 0 to 100
Procedure, shortened: as §2

[10] = tested on: barnyardgrass; assay: Test B flood; type: in vivo, Echinochloa crus-galli; details: 250 g ai/ha, visual rating on 0 to 100 scale (0 no effect, 100 complete control), 13 to 15 days
Procedure, shortened: as §3

[11] = tested on: ducksalad; assay: Test B flood; type: in vivo, Heteranthera limosa; details: 250 g ai/ha, visual rating on 0 to 100 scale (0 no effect, 100 complete control), 13 to 15 days
Procedure, shortened: as §3

[12] = tested on: morningglory; assay: Test A preemergence; type: in vivo, Ipomoea spp.; details: preemergence; for Morningglory plant response rating (0 to 100 scale): 125 g ai/ha, visual injury approx. 10 days after treatment; for Morningglory plant response rating: 500 g ai/ha, visual injury after approx. 10 days, 0 to 100 scale (0 no effect, 100 complete control)
Procedure, shortened: as §1

[13] = tested on: velvetleaf; assay: Test A preemergence; type: in vivo, Abutilon theophrasti; details: preemergence; for Velvetleaf plant response rating (0 to 100 scale): 125 g ai/ha, visual injury approx. 10 days after treatment; for Velvetleaf plant response rating: 500 g ai/ha, visual injury after approx. 10 days, 0 to 100 scale (0 no effect, 100 complete control)
Procedure, shortened: as §1

[14] = tested on: corn; assay: Test C postemergence; type: in vivo, Zea mays; details: for Plant response rating (scale of 0 to 100 where 0 is no effect and 100 is complete control), Corn: Postemergence, 31 g ai/ha, visually evaluated after 13 to 15 days; for Corn plant response rating / Plant response rating, Corn: postemergence; for Corn plant response rating: 62 g ai/ha, scale 0 to 100
Procedure, shortened: as §2

[15] = tested on: waterhemp; assay: Test C postemergence; type: in vivo, Amaranthus rudis; details: postemergence; for Plant response rating, Waterhemp: 250 g ai/ha, scale 0 to 100 (0 no effect, 100 complete control); for Waterhemp plant response rating: scale 0 to 100
Procedure, shortened: as §2

[16] = 250 g ai/ha, scale 0 to 100 (0 no effect, 100 complete control)
[17] = 125 g ai/ha, scale 0 to 100, 0 no effect, 100 complete control
[18] = Postemergence, 500 g ai/ha, 0 to 100 scale (0 no effect, 100 complete control)
[19] = postemergence, 125 g ai/ha, about 10 days, visual rating on 0 to 100 scale (0 no effect, 100 complete control)
[20] = 31 g ai/ha, visual rating, scale 0 to 100 (0 no effect, 100 complete control), 13 to 15 days
[21] = 62 g ai/ha, scale 0 to 100 (0 no effect, 100 complete control), 13 to 15 days
[22] = 250 g ai/ha, scale 0 to 100, 0 is no effect, 100 is complete control

Row | SMILES | Crabgrass, Large plant response rating (0 to 100 scale) [1] | Crabgrass, Large plant response rating [1] | Plant response rating (scale of 0 to 100 where 0 is no effect and 100 is complete control), Galium [2] | Galium plant response rating [2] | Plant response rating, Galium [2, 16] | Plant response rating, Galium [2, 17] | Plant response rating, Sedge, Umbrella [3] | Plant response rating, Ragweed [4, 16] | Plant response rating, Ragweed [4, 17] | Foxtail, Giant plant response rating [5, 18] | Foxtail, Giant plant response rating [5, 19] | Corn plant response rating (0 to 100 scale) [6] | Corn plant response rating [6] | Ryegrass, Italian plant response rating [7, 20] | Ryegrass, Italian plant response rating [7, 21] | Plant response rating, Ryegrass, Italian ([7]; 13 to 15 days) | Ryegrass, Italian plant response rating [7, 22] | Plant response rating (scale of 0 to 100 where 0 is no effect and 100 is complete control), Morningglory [8] | Morningglory plant response rating [8] | Plant response rating, Morningglory [8, 16] | also measured
1 | CCCNC(=O)c1cc(CCF)n(Cc2ccnc(C(F)(F)F)c2)n1 [Compound 177] | 100 | 100 | 50 | 50 | 90 | 80 | 95 | 75 | 70 | 100 | 100 | 80 | 90 | 5 | 40 | 85 | 90 | 60 | 40 | 80 | Plant response rating, Morningglory [8, 17]: 85; Pigweed plant response rating [9]: 40; Plant response rating, Pigweed [9, 16]: 85; Plant response rating, Pigweed [9, 17]: 75; Plant response rating, Barnyardgrass [10]: 60; Plant response rating, Ducksalad [11]: 95; Morningglory plant response rating (0 to 100 scale) [12]: 100; Morningglory plant response rating [12]: 100; Velvetleaf plant response rating (0 to 100 scale) [13]: 40; Velvetleaf plant response rating [13]: 100; Plant response rating (scale of 0 to 100 where 0 is no effect and 100 is complete control), Corn [14]: 5; Corn plant response rating [14]: 20; Plant response rating, Corn [14, 16]: 15; Plant response rating, Corn [14, 17]: 15; Plant response rating, Waterhemp [15]: 65; Waterhemp plant response rating [15]: 75
2 | CCCc1cc(C(=O)NC(C)C)nn1Cc1ccnc(C(F)(F)F)c1 [Compound 186] | 100 | 100 | 70 | 80 | 100 | 75 | 80 | 70 | 55 | 90 | 90 | 80 | 100 | 5 | 80 | 90 | 90 | 85 | 85 | 75 | Plant response rating, Morningglory [8, 17]: 75; Pigweed plant response rating [9]: 70; Plant response rating, Pigweed [9, 16]: 85; Plant response rating, Pigweed [9, 17]: 85; Plant response rating, Barnyardgrass [10]: 75; Plant response rating, Ducksalad [11]: 80; Morningglory plant response rating (0 to 100 scale) [12]: 100; Morningglory plant response rating [12]: 100; Velvetleaf plant response rating (0 to 100 scale) [13]: 100; Velvetleaf plant response rating [13]: 100; Plant response rating (scale of 0 to 100 where 0 is no effect and 100 is complete control), Corn [14]: 5; Corn plant response rating [14]: 40; Plant response rating, Corn [14, 16]: 65; Plant response rating, Corn [14, 17]: 75; Plant response rating, Waterhemp [15]: 90; Waterhemp plant response rating [15]: 60
3 | CCCNC(=O)c1cc(OCC)n(Cc2ccnc(C(F)(F)F)c2)n1 [Compound 187] | 100 | 100 | 60 | 80 | 90 | 85 | 90 | 85 | 50 | 90 | 90 | 40 | 90 | 50 | 80 | 90 | 90 | 70 | 85 | 98 | Plant response rating, Morningglory [8, 17]: 80; Pigweed plant response rating [9]: 50; Plant response rating, Pigweed [9, 16]: 75; Plant response rating, Pigweed [9, 17]: 60; Plant response rating, Barnyardgrass [10]: 55; Plant response rating, Ducksalad [11]: 90; Morningglory plant response rating (0 to 100 scale) [12]: 100; Morningglory plant response rating [12]: 100; Velvetleaf plant response rating (0 to 100 scale) [13]: 100; Velvetleaf plant response rating [13]: 100; Plant response rating (scale of 0 to 100 where 0 is no effect and 100 is complete control), Corn [14]: 5; Corn plant response rating [14]: 5; Plant response rating, Corn [14, 16]: 65; Plant response rating, Corn [14, 17]: 60; Plant response rating, Waterhemp [15]: 95; Waterhemp plant response rating [15]: 70
4 | CCCc1cc(C(=O)NC(C)C)nn1Cc1cc(C(F)(F)F)nn1C [Compound 201] | 100 | 100 | 60 | 80 | 95 | 60 | 95 | 85 | 60 | 100 | 90 | 10 | 90 | 65 | 90 | 90 | 90 | 80 | 95 | 98 | Plant response rating, Morningglory [8, 17]: 85; Pigweed plant response rating [9]: 65; Plant response rating, Pigweed [9, 16]: 90; Plant response rating, Pigweed [9, 17]: 80; Plant response rating, Barnyardgrass [10]: 70; Plant response rating, Ducksalad [11]: 95; Morningglory plant response rating (0 to 100 scale) [12]: 100; Morningglory plant response rating [12]: 100; Velvetleaf plant response rating (0 to 100 scale) [13]: 100; Velvetleaf plant response rating [13]: 100; Plant response rating (scale of 0 to 100 where 0 is no effect and 100 is complete control), Corn [14]: 10; Corn plant response rating [14]: 10; Plant response rating, Corn [14, 16]: 60; Plant response rating, Corn [14, 17]: 15; Plant response rating, Waterhemp [15]: 85; Waterhemp plant response rating [15]: 70
